The test system of assay [1] is KRAS G12V mutant NCI-H727 cells. As to the kind of experiment: Proliferation inhibition of NCI-H727 cells, 3D CellTiter-Glo assay (Method B). The class given is cell-based, human. Conditions: Homo sapiens, NCI-H727, 120 h, Method B; 3D culture with 0.65% methylcellulose, 5 days, CTG; read-out: NCI-H727 IC50/nM. The method in brief: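 Cells grown in 3D medium (RPMI-1640, 10% FBS, 0.65% methylcellulose) overnight, then treated 5 days at 37 °C, 5% CO2 with 9 threefold dilutions from 10 µM top working concentration, duplicate wells. CellTiter-Glo luminescence read; IC50 (nM) fitted by dose-response-inhibition equation.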
(In general: Cellular ATP, detected with luciferase, serves as a proxy for viable cell number.)

Assay [2] deals with KRAS G12D mutant AGS cells. The assay can be described thus: Proliferation inhibition of AGS cells, CellTiter-Glo assay. The class given is cell-based, human. Conditions: Homo sapiens, AGS, 72 h, 3 days, CTG; read-out: AGS IC50/nM. The method in brief: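 AGS cells at 1500 cells/well in F12K + 10% FBS were exposed for 3 days at 37°C to nine 3-fold dilutions from 10 µM top concentration, in duplicate. Viability read by CellTiter-Glo luminescence; IC50 (nM) from dose-response-inhibition fitting.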

Where only a bound is given, the exact number is not on record here.

`CCc1cc2c(N3Cc4cc(C(=O)N(C)C)nn4CC[C@@H]3C)nc(OC[C@]3(C)CN(C)CC/C3=C\F)nc2c(F)c1-c1ccc(F)c2sc(N)c(C#N)c12` [Example 166A]: the figures for the IC50 in assay [1] and in assay [2] were 7.4 nM and 4.9 nM, respectively.
Regarding `CN1CC/C(=C\F)[C@](C)(COc2nc(N3CCCn4nc(C(=O)N(C)C)c(Cl)c4C3)c3cc(C4CC4)c(-c4ncc(F)c5sc(N)c(C#N)c45)c(F)c3n2)C1` [Example 167A], the IC50 in assay [1] was 96.7 nM; in assay [2] it was 21.7 nM.
In the same order, the values of `C[C@H]1CCn2nc(C(=O)N(C)C)cc2CN1c1nc(OC[C@]2(C)CN(C)CC/C2=C\F)nc2c(F)c(-c3ncc(F)c4sc(N)c(C#N)c34)c(C3CC3)cc12` [Example 168A] are 85 nM and 42.1 nM.
In the same order, the values of `CCc1cc2c(N3CCCn4nc(C(=O)N(C)C)c(Cl)c4C3)nc(OC[C@]3(C)CN(C)CC/C3=C\F)nc2c(F)c1-c1ncc(F)c2sc(N)c(C#N)c12` [Example 169A] are 59.9 nM and 14.6 nM.
Regarding `CCc1cc2c(N3Cc4cc(C(=O)N(C)C)nn4CC[C@@H]3C)nc(OC[C@]3(C)CN(C)CC/C3=C\F)nc2c(F)c1-c1ncc(F)c2sc(N)c(C#N)c12` [Example 170A], the IC50 stood at 81.9 nM in assay [1] and 33.2 nM in assay [2].
The like results for `Cc1c(-c2ncc(F)c3sc(N)c(C#N)c23)c(Cl)cc2c(N3Cc4cc(C(=O)N(C)C)nn4CC[C@@H]3C)nc(OC[C@]3(C)CN(C)CC/C3=C\F)nc12` [Example 171A] were, in that order, 4.1 nM and 4.7 nM.
The like results for `CCN1CC/C(=C\F)[C@](C)(COc2nc(N3CCCn4nc(C(=O)N(C)C)c(Cl)c4C3)c3cc(Cl)c(-c4c(F)ccc5sc(N)c(C#N)c45)c(C)c3n2)C1` [Example 180] were, in that order, 11.3 nM and 10.6 nM.
The like results for `[2H]C([2H])([2H])N1CCC(=CF)C(C)(COc2nc(N3CCCn4nc(C(=O)N(C)C)c(Cl)c4C3)c3cc(CC)c(-c4c(F)ccc5sc(N)c(C#N)c45)c(C)c3n2)C1` (centres unmarked) [Example 186] were, in that order, 5.4 nM and 4.4 nM.
`[2H]C([2H])([2H])N1CCC(=CF)C(C)(COc2nc(N3Cc4cc(C(=O)N(C)C)nn4CCC3C)c3cc(CC)c(-c4c(F)ccc5sc(N)c(C#N)c45)c(C)c3n2)C1` (centres unmarked) [Example 188]: the IC50 turned out to be 3.1 nM in assay [1] and 2.9 nM in assay [2].
The like results for `CCc1cc2c(N3Cc4cc(C(=O)N(C)C)nn4CCC3C)nc(OCC3(C)CN(CC)CCC3=CF)nc2c(C)c1-c1c(F)ccc2sc(N)c(C#N)c12` (centres unmarked) [Example 189] were, in that order, 2.6 nM and 2 nM.
The like results for `[2H]C([2H])([2H])N1CCC(=CF)C(C)(COc2nc(N3CCCn4nc(C(=O)N(C)C)c(Cl)c4C3)c3cc(CC)c(-c4c(F)ccc5sc(N)c(C#N)c45)c(Cl)c3n2)C1` (centres unmarked) [Example 190] were, in that order, 3.2 nM and < 1.5 nM.
In the same order, the values of `[2H]C([2H])([2H])N1CCC(=CF)C(C)(COc2nc(N3Cc4cc(C(=O)N(C)C)nn4CCC3C)c3cc(CC)c(-c4c(F)ccc5sc(N)c(C#N)c45)c(Cl)c3n2)C1` (centres unmarked) [Example 192] are 2 nM and < 1.5 nM.
On to `CCc1cc2c(N3Cc4cc(C(=O)N(C)C)nn4CCC3C)nc(OCC3(C)CN(CC)CCC3=CF)nc2c(Cl)c1-c1c(F)ccc2sc(N)c(C#N)c12` (centres unmarked) [Example 193], for which the IC50 in assay [1] is 2.1 nM; in assay [2], < 1.5 nM.
The like results for `CCc1cc2c(N3Cc4c(Cl)c(C(=O)N(C)C)nn4CCC3C)nc(OCC3(C)CN(C)CCC3=CF)nc2c(F)c1-c1c(F)ccc2sc(N)c(C#N)c12` (centres unmarked) [Example 194] were, in that order, < 1.5 nM and < 1.5 nM.
In the same order, the values of `[2H]C([2H])([2H])N1CCC(=CF)C(C)(COc2nc(N3CCCn4nc(C(=O)N(C)C)c(Cl)c4C3)c3cc(Cl)c(-c4c(F)ccc5sc(N)c(C#N)c45)c(Cl)c3n2)C1` (centres unmarked) [Example 195] are 2.5 nM and 2.5 nM.
The like results for `[2H]C([2H])([2H])N1CCC(=CF)C(C)(COc2nc(N3Cc4cc(C(=O)N(C)C)nn4CCC3C)c3cc(Cl)c(-c4c(F)ccc5sc(N)c(C#N)c45)c(Cl)c3n2)C1` (centres unmarked) [Example 197] were, in that order, 2.1 nM and 3 nM.
As for `CCN1CCC(=CF)C(C)(COc2nc(N3Cc4cc(C(=O)N(C)C)nn4CCC3C)c3cc(Cl)c(-c4c(C#N)c(N)cc(C)c4C(F)(F)F)c(C)c3n2)C1` (centres unmarked) [Example 221], the IC50 in assay [1] amounted to 71.8 nM; in assay [2], 103 nM.
Take `CCC1CCn2nc(C(=O)N(C)C)cc2CN1c1nc(OCC2(C)CN(CC)CCC2=CF)nc2c(F)c(-c3c(F)ccc4sc(N)c(C#N)c34)c(Cl)cc12` (centres unmarked) [Example 250A]: the IC50 in assay [1] and in assay [2] was < 1.5 nM throughout.
For `CCN1CC/C(=C\F)[C@](C)(COc2nc(N3CCCn4nc(C(=O)N(C)C)c(Cl)c4C3)c3cc(C(F)(F)F)c(-c4ncc(F)c5sc(N)c(C#N)c45)c(F)c3n2)C1` [Example 253], the IC50 in assay [1] stood at 8.7 nM; in assay [2] it was 2.5 nM.
With `CCN1CCC(=CF)C(C)(COc2nc(N3Cc4cc(C(=O)N5CCC5)nn4CCC3C)c3cc(Cl)c(-c4c(F)ccc5sc(N)c(C#N)c45)c(F)c3n2)C1` (centres unmarked) [Example 254A], the IC50 in assay [1] and in assay [2] was < 1.5 nM each time.
Consider `CCN1CCC(=CF)C(C)(COc2nc(N3Cc4c(Cl)nnn4CCC3C)c3cc(Cl)c(-c4c(F)ccc5sc(N)c(C#N)c45)c(F)c3n2)C1` (centres unmarked) [Example 259A], for which the values for the IC50 in assay [1] and in assay [2] were 1.7 nM and 3.1 nM, respectively.
The like results for `CCN1CCC(=CF)C(C)(COc2nc(N3Cc4cc(C(=O)N5CCN(C)CC5)nn4CCC3C)c3cc(Cl)c(-c4c(F)ccc5sc(N)c(C#N)c45)c(F)c3n2)C1` (centres unmarked) [Example 261A] were, in that order, 1.9 nM and < 1.5 nM.
The like results for `CCN1CCC(=CF)C(C)(COc2nc(N3Cc4cc(C(=O)N5CCCC5)nn4CCC3C)c3cc(Cl)c(-c4c(F)ccc5sc(N)c(C#N)c45)c(F)c3n2)C1` (centres unmarked) [Example 262A] were, in that order, 2.4 nM and 2.9 nM.
In the same order, the values of `[2H]C([2H])([2H])N1CCC(=CF)C(C)(COc2nc(N3Cc4cc(C(=O)N5CCOCC5)nn4CCC3C)c3cc(CC)c(-c4c(F)ccc5sc(N)c(C#N)c45)c(F)c3n2)C1` (centres unmarked) [Example 263A] are 2.5 nM and 2.5 nM.
As for `CCN1CCC(=CF)C(C)(COc2nc(N3Cc4cc(C(=O)N(C)CCF)nn4CCC3C)c3cc(Cl)c(-c4c(F)ccc5sc(N)c(C#N)c45)c(F)c3n2)C1` (centres unmarked) [Example 264A], the IC50 in assay [1] worked out at 2.8 nM; in assay [2], 2.3 nM.
The like results for `[2H]C([2H])([2H])N1CC/C(=C\F)[C@](C)(COc2nc(N3Cc4cc(C(=O)NC)nn4CC[C@@H]3C)c3cc(CC)c(-c4c(F)ccc5sc(N)c(C#N)c45)c(F)c3n2)C1` [Example 270A] were, in that order, 4.9 nM and 3.6 nM.
For `CCN1CC/C(=C\F)[C@](C)(COc2nc(N3Cc4c(COC)c(C(=O)N(C)C)nn4CC[C@@H]3C)c3cc(Cl)c(-c4ncc(F)c5sc(N)c(C#N)c45)c(F)c3n2)C1` [Example 271A], the IC50 worked out at 8.7 nM in assay [1] and 9.3 nM in assay [2].
In the same order, the values of `CCN1CC[C@H](C(F)F)[C@](C)(COc2nc(N3Cc4c(COC)c(C(=O)N(C)C)nn4CC[C@@H]3C)c3cc(C(F)(F)F)c(-c4ncc(F)c5sc(N)c(C#N)c45)c(F)c3n2)C1` [Example 272A] are 10.4 nM and 12.5 nM.
In the same order, the values of `CCN1CC/C(=C\F)[C@](C)(COc2nc(N3Cc4c(COC)c(C(=O)N(C)C)nn4CC[C@@H]3C)c3cc(Cl)c(-c4c(F)ccc5sc(N)c(C#N)c45)c(OC)c3n2)C1` [Example 273A] are 26.6 nM and 40.6 nM.
The like results for `CCN1CC/C(=C\F)[C@](C)(COc2nc(N3Cc4cc(C(=O)N(C)C)nn4CC[C@@H]3C)c3cc(Cl)c(-c4nccc5sc(N)c(C#N)c45)c(C)c3n2)C1` [Example 276A] were, in that order, 33.4 nM and 18.5 nM.
As for `CCN1CC/C(=C\F)[C@](C)(COc2nc(N3Cc4cc(C(=O)N5CC(F)C5)nn4CC[C@@H]3C)c3cc(Cl)c(-c4c(F)ccc5sc(N)c(C#N)c45)c(F)c3n2)C1` [Example 277A], the IC50 in assay [1] is 1.8 nM; in assay [2] it was < 1.5 nM.

(Values after patent publication EP4775577A1, “RAS INHIBITOR” (Tyligand Bioscience (Shanghai) Limited, priority 2023, dated 2025).)
